Assay [1] addresses T1, mutant p53 in MDA-MB-231 breast cancer cells (Homo sapiens, UniProt P04637, R280K).
T1 construct: host or cells: MDA-MB-231
As to the kind of experiment: Immunoblot of mutant p53 in MDA-MB-231 cells treated with ITCs. In kind it is cell-based. The settings on record: MDA-MB-231, 10 μM ITCs, 24 h, compared with DMSO control. From the text:
Human H596, A549, HCT116, MDA-MB-231, MDA-MB-468, MCF-7, DU145, MCF-10A, SW480, and SCC-4 cells were obtained from ATCC (Manassas, Va.). H1299-175H cells were kindly provided by Dr. Maria Laura Avantaggiati (Georgetown University). Cells were maintained in DMEM or RPMI-1640 medium supplemented with 10% FBS (Hyclone). […] 2,2-Diphenylethyl ITC, 4-phenoxybenzyl ITC, 4-methoxybenzyl ITC, 4-chlorobenzyl ITC, Dα-methylbenzyl ITC, trityl ITC, and 3-phenylpropyl ITC were purchased from Trans World Chemicals (Rockville, Md.). Erucin and 4-phenylbutyl ITC were from LKT Laboratories, Inc. (St. Paul, Minn.). […] The p53 DO-1 and β-actin antibodies were purchased from Santa Cruz Biotechnology (Santa Cruz, Calif.), horseradish peroxidase-labeled goat antimouse secondary antibodies were purchased from GE-Healthcare (Pittsburgh, Pa.), and Bio-Rad Protein Assay was from Bio-Rad (Hercules, Calif.).
Whole cell lysates were prepared in lysis buffer (20 mM HEPES, pH 7.4, 2 mM EGTA, 50 mM β-glycerol phosphate, 1% Triton X-100, 10% glycerol, 1 mM DTT, 1 mM PMSF, […], 1 mM Na3-VO4, and 5 mM NaF). For immunoblot analysis, equal amounts of protein were resolved on 4-12% NuPAGE BisTris gels (Invitrogen) and transferred to PVDF membranes (Millipore). The membranes were blocked with 5% milk in TBST and were then probed with p53 (DO-1) or β-actin antibody. Proteins were detected using enhanced chemiluminescence (ECL) reagents (GE Healthcare).
(In general: In western blotting, separated proteins are transferred to a membrane and probed.)

The test system of assay [2] is mutant p53 in MDA-MB-231, MDA-MB-468, DU145, SW480, and SCC-4 cells. Put plainly: Immunoblot of mutant p53 in other tumor cells with mutant p53. Format: cell-based, Human. From the text: (§1) Human H596, A549, HCT116, MDA-MB-231, MDA-MB-468, MCF-7, DU145, MCF-10A, SW480, and SCC-4 cells were obtained from ATCC (Manassas, Va.). H1299-175H cells were kindly provided by Dr. Maria Laura Avantaggiati (Georgetown University). Cells were maintained in DMEM or RPMI-1640 medium supplemented with 10% FBS (Hyclone). DMSO, PEITC, BITC, SFN, AITC, NMPEA, and monochlorobimane were purchased from Sigma-Aldrich (St. Louis, Mo.). 2,2-Diphenylethyl ITC, 4-phenoxybenzyl ITC, 4-methoxybenzyl ITC, 4-chlorobenzyl ITC, Dα-methylbenzyl ITC, trityl ITC, and 3-phenylpropyl ITC were purchased from Trans World Chemicals (Rockville, Md.). Erucin and 4-phenylbutyl ITC were from LKT Laboratories, Inc. (St. Paul, Minn.). […] All the compounds are with purities ≧95% as determined by gas-liquid chromatography or HPLC. […]
(§2) Whole cell lysates were prepared in lysis buffer (20 mM HEPES, pH 7.4, 2 mM EGTA, 50 mM β-glycerol phosphate, 1% Triton X-100, 10% glycerol, 1 mM DTT, 1 mM PMSF, […], 1 mM Na3-VO4, and 5 mM NaF). […] Proteins were detected using enhanced chemiluminescence (ECL) reagents (GE Healthcare). […]

Assay [3] deals with T2, wild-type p53 in A549, HCT116, MCF-7 and MCF-10A cells (Homo sapiens, UniProt P04637).
T2 construct: host or cells: A549, HCT116, MCF-7, MCF-10A
As to the kind of experiment: Immunoblot of wild-type p53 in cells with wild-type p53. In kind it is cell-based.
Excerpt: as §1, §2

Structures are written as SMILES. Bounds are passed on as bounds.

We go through 1 compound from patent publication US20130158111A1, “Compositions and Methods for Depleting Mutant p53” (Georgetown University, priority 2011, published 2013).

With `S=C=NCCc1ccccc1` [PEITC, phenethyl isothiocyanate], the “depletion of mutant p53 at equimolar concentrations” value in assay [1] was “approximately the same extent”. Besides, the “mutant p53 level in five cell lines” value in assay [2] (10 or 15 μM PEITC, time-dependent) is given as “depleted mutant p53 in all five cell lines”. The “concentration causing marked reduction in the level of mutant p53 protein” value in assay [2] (variety of tumor cell lines) was at least 10 µM. Besides, the “wild-type p53 expression” value in assay [3] (15 or 20 μM PEITC for 2, 4, 8, and 24 h) is given as “did not decrease”. For the same compound, in assay [3] (PEITC exposure, summary of previous experiments), the “level of wild type (WT) p53 protein” value is “no significant decrease”.
